These are literature values, as cited in PubChem BioAssay AID1259409 (Chemical Carcinogenesis Research Information System (CCRIS), 2018).

For this series, the system named is rodent chemically induced tumor inhibition, incidence and multiplicity. The series is described as follows: CCRIS tumor inhibitor studies. Particulars: Promoter: NONE USED.

For `O=C1O[C@H]([C@@H](O)CO)C(O)=C1O`, the “tumour outcome (control, treated, inhibition, significance)” value (Carcinogen: N-METHYL-N-NITROSOUREA, 684-93-5, Dose [Inhibitor]: 1% IN 20% FAT DIET DAILY STARTING 2 WK BEFORE START OF CARCINOGEN TREATMENT AND CONTINUING FOR DURATION OF STUDY (STUDY, Route [Inhibitor]: ORAL, Species: RAT, Strain/Sex: F344/FEMALE, Target Tissue: Type of Lesion: MAMMARY GLAND: FIBROADENOMA, Dose [Carcinogen]: 2 MG 2/WK FOR 2 WK) is recorded as 25%, 38%, -52%, not significant; the “tumour outcome (control, treated, inhibition, significance)” value (Carcinogen: N-NITROSOMORPHOLINE, 59-89-2, Dose [Inhibitor]: 22.7 G/KG OF DIET 5 D/WK FOR 2 YR STARTING SIMULTANEOUSLY WITH CARCINOGEN TREATMENT AT 8 WK OF AGE AND CONTINUING FOR DU, Route [Inhibitor]: ORAL, Species: RAT, Strain/Sex: MRC/MALE, Target Tissue: Type of Lesion: FORESTOMACH: SQUAMOUS CELL PAPILLOMA, SQUAMOUS CELL CARCINOMA, Dose [Carcinogen]: 0.15 G/L DRINKING WATER 5 D/WK FOR 2 YR) was 1/41 (2%), 4/47 (9%), -350%, not calculated; the “tumour outcome (control, treated, inhibition, significance)” value (Carcinogen: N-NITROSOMORPHOLINE, 59-89-2, Dose [Inhibitor]: 22.7 G/KG OF DIET 5 D/WK FOR 2 YR STARTING SIMULTANEOUSLY WITH CARCINOGEN TREATMENT AT 8 WK OF AGE AND CONTINUING FOR DU, Route [Inhibitor]: ORAL, Species: RAT, Strain/Sex: MRC/MALE, Target Tissue: Type of Lesion: LIVER: KUPFFER CELL SARCOMA, Dose [Carcinogen]: 0.15 G/L DRINKING WATER 5 D/WK FOR 2 YR) was 28/41 (68%), 34/47 (72%), -6%, not calculated; the “tumour outcome (control, treated, inhibition, significance)” value (Carcinogen: N-NITROSOMORPHOLINE, 59-89-2, Dose [Inhibitor]: 22.7 G/KG OF DIET 5 D/WK FOR 2 YR STARTING SIMULTANEOUSLY WITH CARCINOGEN TREATMENT AT 8 WK OF AGE AND CONTINUING FOR DU, Route [Inhibitor]: ORAL, Species: RAT, Strain/Sex: MRC/MALE, Target Tissue: Type of Lesion: LIVER: LIVER CELL CARCINOMA, Dose [Carcinogen]: 0.15 G/L DRINKING WATER 5 D/WK FOR 2 YR) is listed as 17/41 (41%), 20/47 (43%), -5%, not calculated; the “tumour outcome (control, treated, inhibition, significance)” value (Carcinogen: TRANS-5-AMINO-3-[2-(5-NITRO-2-FURYL)VINYL]-1,2,4-OXADIAZOLE;SQL8506, 28754-68-9, Carcinogen: TRANS-5-AMINO-3-[2-(5-NITRO-2-FURYL)VINYL]-1,2,4-OXADIAZOLE;SQL8506, 28754-68-9, Dose [Inhibitor]: 2 G/KG 16 HR BEFORE THE 1ST CARCINOGEN DOSE FOLLOWED BY ADDITIONAL DOSES IMMEDIATELY BEFORE EACH DOSE OF CARCINOGEN (STU, Route [Inhibitor]: INTRAPERITONEAL, Species: MOUSE, Strain/Sex: CD-1/FEMALE, Target Tissue: Type of Lesion: HEMATOPOIETIC SYSTEM: MYELOID LEUKEMIA, Dose [Carcinogen]: 1 G/KG 2/D FOR 5 D EVERY 4 WK FOR 3 COURSES OF TREATMENT) is listed as 7/137 (5%), 3/45 (7%), -40%, not calculated; the “tumour outcome (control, treated, inhibition, significance)” value (Carcinogen: TRANS-5-AMINO-3-[2-(5-NITRO-2-FURYL)VINYL]-1,2,4-OXADIAZOLE;SQL8506, 28754-68-9, Carcinogen: TRANS-5-AMINO-3-[2-(5-NITRO-2-FURYL)VINYL]-1,2,4-OXADIAZOLE;SQL8506, 28754-68-9, Dose [Inhibitor]: 2 G/KG 16 HR BEFORE THE 1ST CARCINOGEN DOSE FOLLOWED BY ADDITIONAL DOSES IMMEDIATELY BEFORE EACH DOSE OF CARCINOGEN (STU, Route [Inhibitor]: INTRAPERITONEAL, Species: MOUSE, Strain/Sex: CD-1/FEMALE, Target Tissue: Type of Lesion: LYMPHOID TISSUE: NONTHYMIC LYMPHOMA, Dose [Carcinogen]: 1 G/KG 2/D FOR 5 D EVERY 4 WK FOR 3 COURSES OF TREATMENT) is recorded as 8/137 (6%), 2/45 (4%), 33%, not calculated. For the same compound, the “tumour outcome (control, treated, inhibition, significance)” value was 22/137 (16%), 7/45 (16%), 0%, not calculated (Carcinogen: TRANS-5-AMINO-3-[2-(5-NITRO-2-FURYL)VINYL]-1,2,4-OXADIAZOLE;SQL8506, 28754-68-9, Carcinogen: TRANS-5-AMINO-3-[2-(5-NITRO-2-FURYL)VINYL]-1,2,4-OXADIAZOLE;SQL8506, 28754-68-9, Dose [Inhibitor]: 2 G/KG 16 HR BEFORE THE 1ST CARCINOGEN DOSE FOLLOWED BY ADDITIONAL DOSES IMMEDIATELY BEFORE EACH DOSE OF CARCINOGEN (STU, Route [Inhibitor]: INTRAPERITONEAL, Species: MOUSE, Strain/Sex: CD-1/FEMALE, Target Tissue: Type of Lesion: LYMPHOID TISSUE: THYMIC LYMPHOMA, Dose [Carcinogen]: 1 G/KG 2/D FOR 5 D EVERY 4 WK FOR 3 COURSES OF TREATMENT); 60/137 (44%), 14/45 (31%), 30%, not calculated (Carcinogen: TRANS-5-AMINO-3-[2-(5-NITRO-2-FURYL)VINYL]-1,2,4-OXADIAZOLE;SQL8506, 28754-68-9, Carcinogen: TRANS-5-AMINO-3-[2-(5-NITRO-2-FURYL)VINYL]-1,2,4-OXADIAZOLE;SQL8506, 28754-68-9, Dose [Inhibitor]: 2 G/KG 16 HR BEFORE THE 1ST CARCINOGEN DOSE FOLLOWED BY ADDITIONAL DOSES IMMEDIATELY BEFORE EACH DOSE OF CARCINOGEN (STU, Route [Inhibitor]: INTRAPERITONEAL, Species: MOUSE, Strain/Sex: CD-1/FEMALE, Target Tissue: Type of Lesion: STOMACH: SQUAMOUS CARCINOMA, Dose [Carcinogen]: 1 G/KG 2/D FOR 5 D EVERY 4 WK FOR 3 COURSES OF TREATMENT); 23/44 (52%), 24/39 (62%), -19%, not calculated (Carcinogen: UV IRRADIATION, Dose [Inhibitor]: 0.3% IN DIET BEGINNING 10 D PRIOR TO CARCINOGEN DOSE AND CONTINUING FOR DURATION OF STUDY (STUDY DURATION: 27 WK), Route [Inhibitor]: ORAL, Species: MOUSE, Strain/Sex: SKH/HRL/FEMALE, Target Tissue: Type of Lesion: SKIN: CARCINOMA OR PAPILLOMA, Dose [Carcinogen]: 1.13 J/CM2/D INCREASED EVERY 2 WK TO A FINAL VALUE OF 1.97 J/CM2/D 5 D/WK FOR 15 WK (TOTAL EXPOSURE: 135 J/CM2)); 23/44 (52%), 15/38 (39%), 25%, not calculated (Carcinogen: UV IRRADIATION, Dose [Inhibitor]: 5% IN DIET BEGINNING 10 D PRIOR TO CARCINOGEN DOSE AND CONTINUING FOR DURATION OF STUDY (STUDY DURATION: 27 WK), Route [Inhibitor]: ORAL, Species: MOUSE, Strain/Sex: SKH/HRL/FEMALE, Target Tissue: Type of Lesion: SKIN: PAPILLOMA OR CARCINOMA, Dose [Carcinogen]: 1.13 J/CM2/D INCREASED EVERY 2 WK TO A FINAL VALUE OF 1.97 J/CM2/D 5 D/WK FOR 15 WK (TOTAL EXPOSURE: 135 J/CM2)); 23/44 (52%), 14/40 (35%), 33%, not calculated (Carcinogen: UV IRRADIATION, Dose [Inhibitor]: 10% IN DIET BEGINNING 10 D PRIOR TO CARCINOGEN DOSE AND CONTINUING FOR DURATION OF STUDY (STUDY DURATION: 27 WK), Route [Inhibitor]: ORAL, Species: MOUSE, Strain/Sex: SKH/HRL/FEMALE, Target Tissue: Type of Lesion: SKIN: PAPILLOMA OR CARCINOMA, Dose [Carcinogen]: 1.13 J/CM2/D INCREASED EVERY 2 WK TO A FINAL VALUE OF 1.97 J/CM2/D 5 D/WK FOR 15 WK (TOTAL EXPOSURE: 135 J/CM2)); 13/37 (35%), 7/39 (18%), 49%, not significant (Dose [Inhibitor]: 22.7 G/KG OF DIET 5 D/WK FOR 2 YR STARTING SIMULTANEOUSLY WITH CARCINOGEN TREATMENT AT 8 WK OF AGE AND CONTINUING FOR DU, Route [Inhibitor]: ORAL, Species: RAT, Strain/Sex: MRC/MALE, Target Tissue: Type of Lesion: LIVER: KUPFFER CELL SARCOMA). Besides, the “tumour outcome (control, treated, inhibition, significance)” value (Dose [Inhibitor]: 22.7 G/KG OF DIET 5 D/WK FOR 2 YR STARTING SIMULTANEOUSLY WITH CARCINOGEN TREATMENT AT 8 WK OF AGE AND CONTINUING FOR DU, Route [Inhibitor]: ORAL, Species: RAT, Strain/Sex: MRC/MALE, Target Tissue: Type of Lesion: LIVER: LIVER CELL CARCINOMA) is 12/37 (32%), 10/39 (26%), 19%, not significant. Besides, the outcome (Dose [Inhibitor]: 22.7 G/KG OF DIET 5 D/WK FOR 2 YR STARTING SIMULTANEOUSLY WITH CARCINOGEN TREATMENT AT 8 WK OF AGE AND CONTINUING FOR DU, Route [Inhibitor]: ORAL, Species: RAT, Strain/Sex: MRC/MALE, Target Tissue: Type of Lesion: FORESTOMACH: SQUAMOUS CELL PAPILLOMA, SQUAMOUS CELL CARCINOMA) is on record as 0/37 (0%), 21/39 (54%), not calculated.
